# How the values were obtained:
# [1] = target: T1, human ACSS2 (Homo sapiens, UniProt Q9NR19); assay: ACSS2 enzyme assay (acetyl-CoA formation, LC-MS/MS); assay type: biochemical; details: cytosolic fraction of BT474 cells as ACSS2 source; 100 μM acetate, CoA and ATP; 2 h at 25° C.; read-out: Enzyme Activity (IC50 range)
# T1 construct: The cytosolic fraction of BT474 cells was used as a source of the ACSS2 enzyme; endogenous in cells; host or cells: BT474 cells (cytosolic fraction)
# Experimental: Novel compounds were screened in a human ACSS2 enzyme assay. Briefly, the ACSS2 enzyme reaction was monitored by directly measuring acetyl-CoA formation. The cytosolic fraction of BT474 cells was used as a source of the ACSS2 enzyme. A short protocol for this assay is provided below.
# Preparation of Cytosolic Fraction from BT474 Cells
# 9×10^6 cells were harvested by trypsinization followed by centrifugation. The cell pellet was washed with PBS and dissolved in 500 μl STM buffer (50 mM Tris-HCl pH7.4, 250 mM sucrose, 5 mM MgCl2 & protease-phosphatase inhibitor cocktail) and homogenized at 600-1000 rpm for 1 min. on ice followed by incubation for 30 min. with intermittent vortexing. Supernatant was collected by centrifugation at 800 g for 15 min. at 4° C. Cytosolic fraction was prepared by further centrifugation of the supernatant at 12000 g for 15 min. at 4° C. Total protein content of the cytosolic fraction was estimated & diluted to 1 mg/ml concentration in storage buffer (25 mM Tris-HCl pH7.4, 1 mM MgCl2, 1 mM DTT & 10% glycerol) and stored at −80° C. for further use.
# 100 ng of cytosolic fraction in buffer composed of 25 mM Tris-HCl pH7.4 1 mM MgCl2, 1 mM DTT & 0.05% Tween20 was preincubated with desired concentrations of novel compounds for 5 min. maintaining 1% DMSO. Reaction was started with addition of substrate mix (100 μM of acetate, CoA and ATP) and incubated for 2 h at 25° C. with constant shaking at 500 rpm. Post incubation the reaction was terminated by addition of 10% TCA followed by 5 fold dilution in water. The reaction mixture was centrifuged at 800 g for 10 min. at RT and acetyl-CoA detected in supernatant by LC-MS/MS (QTrap5500 ABSCIEX).
# [2] = tested on: [14C] acetate incorporation in macromolecules, BT474 cells; assay: Cell based [14C] acetate incorporation assay; details: Homo sapiens, BT-474, 3 h at 37° C., read-out: Cellular Activity (IC50 range)
# Experimental: Cell Based [^14C] Acetate Incorporation Assay
# In the cellular assay, ACSS2 inhibitors were screened against [^14C] acetate incorporation in macromolecules. 4×10^4 BT474 cells were plated in 96 well plates in growth media composed of DMEM & 10% FBS and incubated overnight in a 37° C., 5% CO2 incubator. The following day the cells were washed in HBSS and the assay was performed in 100 μl of HBSS. 50 μl of 4× compound in 4% DMSO was added to the cells and preincubated for 10 min. at 37° C. 50 μl of acetate solution (0.1 μCi ^14C acetate+10 μM ^12C acetate) was added to each well of the plate and incubated for 3 h in a 37° C., 5% CO2 incubator. Following incubation, cells were harvested with water on polyethylene imine (PEI) presoaked GF/C filtermat, air dried and radioactive count were recorded in Trilux micro beta Liquid Scintillation Counter (PerkinElmer).
# T1 sequence (Q9NR19 whole entry): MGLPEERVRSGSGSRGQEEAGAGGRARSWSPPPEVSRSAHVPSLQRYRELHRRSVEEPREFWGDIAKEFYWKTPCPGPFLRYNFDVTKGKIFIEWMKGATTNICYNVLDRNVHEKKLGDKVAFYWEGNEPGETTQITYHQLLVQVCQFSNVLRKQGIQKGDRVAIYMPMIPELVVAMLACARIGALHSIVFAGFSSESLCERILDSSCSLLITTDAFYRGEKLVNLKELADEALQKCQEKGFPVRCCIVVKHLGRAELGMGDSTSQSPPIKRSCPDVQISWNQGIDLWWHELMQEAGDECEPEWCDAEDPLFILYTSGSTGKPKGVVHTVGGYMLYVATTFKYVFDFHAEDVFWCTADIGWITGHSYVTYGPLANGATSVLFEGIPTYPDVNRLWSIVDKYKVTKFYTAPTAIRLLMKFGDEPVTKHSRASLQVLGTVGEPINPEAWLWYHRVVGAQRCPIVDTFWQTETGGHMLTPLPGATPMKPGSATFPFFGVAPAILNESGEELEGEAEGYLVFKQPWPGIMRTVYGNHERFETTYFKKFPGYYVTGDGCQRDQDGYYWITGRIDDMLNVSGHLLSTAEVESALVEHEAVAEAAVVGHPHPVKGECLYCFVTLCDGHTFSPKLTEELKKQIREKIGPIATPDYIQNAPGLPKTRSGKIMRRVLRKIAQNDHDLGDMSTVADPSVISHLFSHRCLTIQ
Structure (SMILES),IC50 [1] [µM],IC50 [2] [µM]
"CCC(O)CNC(=O)Nc1ccc2nc(C3=CCCCC3)c(-c3ccccc3F)cc2c1 (centres unmarked) [Example 32, 1-(2-(cyclohex-1-en-1-yl)-3-(2-fluorophenyl)quinolin-6-yl)-3-(2-hydroxybutyl) urea]",≤ 1,≤ 1
"CCC(O)CNC(=O)Nc1ccc2nc(-c3ccccc3N(C)C)c(-c3ccccc3F)cc2c1 (centres unmarked) [Example 33, 1-(2-(2-(dimethylamino)phenyl)-3-(2-fluorophenyl)quinolin-6-yl)-3-(2-hydroxybutyl) urea]",< 0.1,< 0.1
"CCC(O)CNC(=O)Nc1ccc2nc(-c3ccncc3)c(-c3ccccc3F)cc2c1 (centres unmarked) [Example 34, 1-(3-(2-fluorophenyl)-2-(pyridin-4-yl)quinolin-6-yl)-3-(2-hydroxybutyl) urea]",< 0.1,< 0.1
"CC[C@@H](O)CNC(=O)Nc1ccc2nc(-c3ccccc3OC)c(-c3ccccc3F)cc2c1 [Example 35, (R)-1-(3-(2-fluorophenyl)-2-(2-methoxyphenyl)quinolin-6-yl)-3-(2-hydroxybutyl) urea]",< 0.1,< 0.1
"CC[C@H](O)CNC(=O)Nc1ccc2nc(-c3ccccc3OC)c(-c3ccccc3F)cc2c1 [Example 36, (S)-1-(3-(2-fluorophenyl)-2-(2-methoxyphenyl)quinolin-6-yl)-3-(2-hydroxybutyl) urea]",< 0.1,< 0.1
"CCCCNC(=O)Nc1ccc2nc(-c3ccccc3OC)c(-c3ccccc3F)cc2c1 [Example 37, 1-butyl-3-(3-(2-fluorophenyl)-2-(2-methoxyphenyl)quinolin-6-yl)urea]",< 0.1,< 0.1
"CCC(O)CNC(=O)Nc1ccc2nc(-c3ccccn3)c(-c3ccccc3)cc2c1 (centres unmarked) [Example 38, 1-(2-hydroxybutyl)-3-(3-phenyl-2-(pyridin-2-yl)quinolin-6-yl)urea]",< 0.1,≤ 1
"CCC(O)CNC(=O)Nc1ccc2nc(C3CCCCC3)c(-c3ccccc3F)cc2c1 (centres unmarked) [Example 39, 1-(2-cyclohexyl-3-(2-fluorophenyl)quinolin-6-yl)-3-(2-hydroxybutyl) urea]",> 10,≤ 10
"CCC(O)CNC(=O)Nc1ccc2nc(C3CC3)c(-c3ccccc3)cc2c1 (centres unmarked) [Example 40, 1-(2-cyclopropyl-3-phenylquinolin-6-yl)-3-(2-hydroxybutyl) urea]",≤ 1,≤ 10
"CCC(O)CNC(=O)Nc1ccc2nc(-c3cccnc3)c(-c3ccccc3)cc2c1 (centres unmarked) [Example 41, 1-(2-hydroxybutyl)-3-(3-phenyl-2-(pyridin-3-yl)quinolin-6-yl)urea]",< 0.1,< 0.1
"CCC(O)CNC(=O)Nc1ccc2nc(-c3cccnc3O)c(-c3cccnc3O)cc2c1 (centres unmarked) [Example 42, 1-(2,3-bis(2-hydroxypyridin-3-yl)quinolin-6-yl)-3-(2-hydroxybutyl) urea]",> 10,> 10
"CCC(O)CNC(=O)Nc1ccc2nc(-c3cnn(C)c3)c(-c3ccccc3)cc2c1 (centres unmarked) [Example 43, 1-(2-hydroxybutyl)-3-(2-(1-methyl-1H-pyrazol-4-yl)-3-phenylquinolin-6-yl)urea]",< 0.1,≤ 1
"CCC(O)CNC(=O)Nc1ccc2nc(-c3ccccc3OCC(C)C)c(-c3ccccc3)cc2c1 (centres unmarked) [Example 59, 1-(2-hydroxybutyl)-3-(2-(2-isobutoxyphe-nyl)-3-phenylquinolin-6-yl)urea]",< 0.1,< 0.1

# Further lines, results first:
IC50 [1] [µM],IC50 [2] [µM],Structure (SMILES)
< 0.1,< 0.1,"CCC(CNC(=O)Nc1ccc2nc(-c3ccccc3)c(-c3ccccc3F)cc2c1)OC (centres unmarked) [Example 44, 1-(3-(2-fluorophenyl)-2-phenylquinolin-6-yl)-3-(2-methoxybutyl) urea]"
< 0.1,< 0.1,"CCC(F)(F)CNC(=O)Nc1ccc2nc(-c3ccccc3)c(-c3ccccc3F)cc2c1 [Example 45, 1-(2,2-Difluorobutyl)-3-(3-(2-fluorophenyl)-2-phenylquinolin-6-yl)urea]"
< 0.1,< 0.1,"CCC(O)CNC(=O)Nc1ccc2nc(-c3cccc(F)c3)c(-c3ccccc3F)cc2c1 (centres unmarked) [Example 46, 1-(3-(2-fluorophenyl)-2-(3-fluorophenyl)quinolin-6-yl)-3-(2-hydroxybutyl) urea]"
< 0.1,< 0.1,"CCC(O)CNC(=O)Nc1ccc2nc(-c3ccc(F)cc3)c(-c3ccccc3F)cc2c1 (centres unmarked) [Example 47, 1-(3-(2-fluorophenyl)-2-(4-fluorophenyl)quinolin-6-yl)-3-(2-hydroxybutyl) urea]"
< 0.1,< 0.1,"CCC(O)CNC(=O)Nc1ccc2nc(-c3ccccc3)c(-c3ccccc3)c(C(=O)OC)c2c1 (centres unmarked) [Example 48, methyl 6-(3-(2-hydroxybutyl)ureido)-2,3-diphenylquino-line-4-carboxylate]"
< 0.1,< 0.1,"CCC(O)CNC(=O)Nc1ccc2nc(-c3ccccc3)c(-c3ccccc3)c(C(N)=O)c2c1 (centres unmarked) [Example 49, 6-(3-(2-hydroxybutyl)ureido)-2,3-diphenylquino-line-4-carboxamide]"
≤ 10,> 10,"CCC(O)CNC(=O)Nc1ccc2nc(/C=C/c3ccccc3)c(-c3ccccc3)cc2c1 (centres unmarked) [Example 50, (E)-1-(2-hydroxybutyl)-3-(3-phenyl-2-styrylquinolin-6-yl)urea]"
< 0.1,< 0.1,"CCC(O)CNC(=O)Nc1ccc2nc(-c3ccccc3NC(C)=O)c(-c3ccccc3F)cc2c1 (centres unmarked) [Example 51, N-(2-(3-(2-fluorophenyl)-6-(3-(2-hydroxybutyl)ureido)quinolin-2-yl)phenyl)acet-amide]"
< 0.1,< 0.1,"CCC(O)CNC(=O)Nc1ccc2nc(C)c(-c3ccccc3)cc2c1 (centres unmarked) [Example 52, 1-(2-hydroxybutyl)-3-(2-methyl-3-phenylquinolin-6-yl)urea]"
< 0.1,≤ 1,"CCC(O)CNC(=O)Nc1ccc2nc(-c3ccccc3C#N)c(-c3ccccc3F)cc2c1 (centres unmarked) [Example 53, 1-(2-(2-cyanophenyl)-3-(2-fluorophenyl)quinolin-6-yl)-3-(2-hydroxybutyl) urea]"
< 0.1,< 0.1,"CCC(O)CNC(=O)Nc1ccc2nc(-c3ccccc3N)c(-c3ccccc3F)cc2c1 (centres unmarked) [Example 54, 1-(2-(2-aminophenyl)-3-(2-fluorophenyl)quinolin-6-yl)-3-(2-hydroxybutyl) urea]"
≤ 10,> 10,"CCC(O)CNC(=O)Nc1ccc2nc(-c3ccc(-c4ccccc4)cc3)c(-c3ccccc3)cc2c1 (centres unmarked) [Example 55, 1-(2-([1,1′-biphenyl]-4-yl)-3-phenylquinolin-6-yl)-3-(2-hydroxybutyl) urea]"
≤ 10,≤ 10,"CCC(O)CNC(=O)Nc1ccc2nc(CCc3ccccc3)c(-c3ccccc3)cc2c1 (centres unmarked) [Example 56, 1-(2-hydroxybutyl)-3-(2-phenethyl-3-phenylquinolin-6-yl)urea]"
< 0.1,< 0.1,"CC[C@@H](O)CNC(=O)Nc1ccc2nc(-c3ccccc3)c(-c3ccccc3)c(C(N)=O)c2c1 [Example 57, (R)-6-(3-(2-hydroxybutyl)ureido)-2,3-diphenylquino-line-4-carboxamide]"
< 0.1,< 0.1,"CCOc1ccccc1-c1nc2ccc(NC(=O)NCC(O)CC)cc2cc1-c1ccccc1 (centres unmarked) [Example 58, 1-(2-(2-ethoxyphenyl)-3-phenylquinolin-6-yl)-3-(2-hydroxybutyl) urea]"
< 0.1,< 0.1,"C#Cc1nc2ccc(NC(=O)NCC(O)CC)cc2cc1-c1ccccc1 (centres unmarked) [Example 60, 1-(2-ethynyl-3-phenylquinolin-6-yl)-3-(2-hydroxybutyl) urea]"
< 0.1,< 0.1,"CCc1nc2ccc(NC(=O)NCC(O)CC)cc2cc1-c1ccccc1 (centres unmarked) [Example 61, 1-(2-ethyl-3-phenylquinolin-6-yl)-3-(2-hydroxybutyl) urea]"
< 0.1,< 0.1,"CCC(O)CNC(=O)Nc1ccc2nc(-c3ccccc3)c(-c3ccccc3)c(C(=O)NC)c2c1 (centres unmarked) [Example 62, 6-(3-(2-hydroxybutyl)ureido)-N-methyl-2,3-diphenylquino-line-4-carboxamide]"
